For 21 compounds, TGI results are on record in PubChem BioAssay (NCI).

Among the test systems are UACC-62 melanoma; HL-60(TB) leukemia; MCF7 breast; SK-MEL-2 melanoma; SF-295 CNS; OVCAR-3 ovarian; SK-MEL-28 melanoma; MOLT-4 leukemia; 786-0 renal; SF-539 CNS.
Common to all, as to assay: NCI tumour cell line growth inhibition, 48 h

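Step 1: Grow cells in 96-well plates. Step 2: Expose to compound for 48 hours at 5 concentrations. Step 3: Interpolate endpoints linearly; if unreached, use highest concentration. The concentration for full growth arrest is given as TGI.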

Consider `COc1ccc(-c2oc3ccc(C)cc3c(=O)c2O)cc1`, for which the TGI in the assay with UACC-62 melanoma, in the assay on HL-60(TB) leukemia, in the assay with MCF7 breast, in the assay with SK-MEL-2 melanoma, in the assay with SF-295 CNS and in the assay with OVCAR-3 ovarian was > 100 µM throughout. Moreover, the TGI in the assay on SK-MEL-28 melanoma, with MOLT-4 leukemia, in the assay on 786-0 renal and in the assay with SF-539 CNS was > 100 µM throughout.

As for `CN(Cc1c2ccccc2cc2ccccc12)S(=O)(=O)c1ccc(-c2c3nc(c(-c4ccc(S(=O)(=O)N(C)Cc5c6ccccc6cc6ccccc56)cc4)c4ccc([nH]4)c(-c4ccc(S(=O)(=O)N(C)Cc5c6ccccc6cc6ccccc56)cc4)c4nc(c(-c5ccc(S(=O)(=O)N(C)Cc6c7ccccc7cc7ccccc67)cc5)c5ccc2[nH]5)C=C4)C=C3)cc1`, the TGI with UACC-62 melanoma, in the assay with HL-60(TB) leukemia, in the assay on MCF7 breast, in the assay with SK-MEL-2 melanoma, in the assay with SF-295 CNS and with OVCAR-3 ovarian was > 100 µM throughout. Also, the TGI in the assay with SK-MEL-28 melanoma, with MOLT-4 leukemia, in the assay on 786-0 renal and with SF-539 CNS was > 100 µM in each case.

`COc1c(-c2cc(C)c(Cl)c(=O)[nH]2)c(O)c(OC)c2occc12`: the TGI in the assay on UACC-62 melanoma, in the assay with HL-60(TB) leukemia, with MCF7 breast, with SK-MEL-2 melanoma, in the assay on SF-295 CNS and with OVCAR-3 ovarian was > 100 µM throughout. Moreover, the TGI in the assay with SK-MEL-28 melanoma, in the assay with MOLT-4 leukemia, with 786-0 renal and in the assay with SF-539 CNS was > 100 µM in each case.

As for `COc1cc(/C=C2\C[C@H]3[C@@H]4CC=C5C[C@@H](N6CCCC6)CC[C@]5(C)[C@H]4CC[C@]3(C)[C@H]2O)cc(OC)c1OC`, the TGI turned out to be 32.7 µM in the assay with UACC-62 melanoma; 21.9 µM in the assay on HL-60(TB) leukemia; 22 µM in the assay on MCF7 breast; 35.9 µM in the assay with SK-MEL-2 melanoma; 26.6 µM with SF-295 CNS; 31.2 µM with OVCAR-3 ovarian. The TGI was 35 µM in the assay on SK-MEL-28 melanoma, > 56.2 µM with MOLT-4 leukemia, 10.8 µM in the assay on 786-0 renal and 32.2 µM in the assay with SF-539 CNS.

Consider `CSc1nc2ccccc2c(=O)n1/N=C1\C(=O)N(CN2CCOCC2)c2ccc(Cl)cc21`, for which the TGI in the assay on UACC-62 melanoma was 61.3 µM; with HL-60(TB) leukemia, 64 µM; in the assay with MCF7 breast it was > 100 µM; with SK-MEL-2 melanoma it was 51.6 µM; with SF-295 CNS, > 100 µM; with OVCAR-3 ovarian, > 100 µM. Further, the TGI in the assay with SK-MEL-28 melanoma is > 100 µM; in the assay on MOLT-4 leukemia, 42.8 µM; in the assay on 786-0 renal, > 100 µM; in the assay on SF-539 CNS it was 75.6 µM.

With `CC/C(Cl)=N\OC(=O)Nc1ccc(OC)cc1`, the TGI in the assay on UACC-62 melanoma is 24.6 µM; in the assay with HL-60(TB) leukemia it was 4.36 µM; in the assay on MCF7 breast, 12.2 µM; with SK-MEL-2 melanoma, 33 µM; in the assay with SF-295 CNS, 31.1 µM; with OVCAR-3 ovarian, 10.7 µM. For the same compound, the TGI in the assay with SK-MEL-28 melanoma was 15.1 µM; in the assay on MOLT-4 leukemia, 5.59 µM; with 786-0 renal it was 3.24 µM; in the assay on SF-539 CNS, 9.51 µM.

As for `CC(C)(C)c1cc(C(O)(C(=O)O)C(=O)O)cc(C(C)(C)C)c1O`, the TGI in the assay with UACC-62 melanoma, in the assay with HL-60(TB) leukemia, in the assay with MCF7 breast, in the assay with SK-MEL-2 melanoma, in the assay on SF-295 CNS and in the assay on OVCAR-3 ovarian was > 100 µM in each case. For the same compound, the TGI in the assay on SK-MEL-28 melanoma, in the assay with MOLT-4 leukemia, in the assay on 786-0 renal and in the assay with SF-539 CNS was > 100 µM in each case.

As for `Cc1cc(S(=O)(=O)Nc2nc3ccsc3c(=O)n2N)c(S)cc1Cl`, the TGI in the assay with UACC-62 melanoma, in the assay with HL-60(TB) leukemia, in the assay with MCF7 breast, in the assay with SK-MEL-2 melanoma, in the assay with SF-295 CNS and with OVCAR-3 ovarian was > 100 µM throughout. Further, the TGI with SK-MEL-28 melanoma, in the assay on MOLT-4 leukemia, in the assay on 786-0 renal and in the assay on SF-539 CNS was > 100 µM throughout.

`Brc1ccc2c(-c3nc(-c4c[nH]c5ccccc45)cs3)c[nH]c2c1`: the TGI with UACC-62 melanoma was > 100 µM; in the assay with HL-60(TB) leukemia it was > 100 µM; in the assay with MCF7 breast, > 100 µM; in the assay on SK-MEL-2 melanoma it was > 84.3 µM; in the assay on SF-295 CNS it was > 100 µM; in the assay with OVCAR-3 ovarian, > 100 µM. Moreover, the TGI was > 93.6 µM in the assay with SK-MEL-28 melanoma, > 87 µM with MOLT-4 leukemia, 81.1 µM in the assay with 786-0 renal and 69.5 µM in the assay with SF-539 CNS.

Regarding `Oc1ccc2c(c1)-c1c(c3cc(O)ccc3n1CCN1CCOCC1)CC2`, the TGI came out at 32.9 µM in the assay on UACC-62 melanoma; 49.3 µM with HL-60(TB) leukemia; 57.8 µM in the assay on MCF7 breast; 37.7 µM in the assay with SK-MEL-2 melanoma; 47.2 µM with SF-295 CNS; 61.8 µM in the assay on OVCAR-3 ovarian. The TGI worked out at 61.9 µM in the assay with SK-MEL-28 melanoma, 60.4 µM with MOLT-4 leukemia, 53.3 µM in the assay with 786-0 renal and 76 µM in the assay on SF-539 CNS.

As for `COC(=O)c1c(OC(C)=O)ccc2c1c1c(OC(C)=O)c3ccccc3c(OC(C)=O)c1n2Cc1cc(OC)cc(OC)c1`, the TGI is > 100 µM in the assay on UACC-62 melanoma; > 100 µM in the assay with HL-60(TB) leukemia; > 100 µM in the assay on MCF7 breast; 12.5 µM in the assay on SK-MEL-2 melanoma; > 100 µM in the assay with SF-295 CNS; > 100 µM with OVCAR-3 ovarian. Also, the TGI in the assay on SK-MEL-28 melanoma is > 100 µM; in the assay on MOLT-4 leukemia, > 100 µM; in the assay on 786-0 renal it was > 100 µM; in the assay with SF-539 CNS, 9.27 µM.

With `Oc1nc(N/N=C/c2c[nH]c3ccccc23)[nH]c1/C=C1\C=Nc2ccccc21`, the TGI stood at 37.7 µM in the assay on UACC-62 melanoma; 32.9 µM in the assay with HL-60(TB) leukemia; 29.5 µM in the assay with MCF7 breast; 36.5 µM with SK-MEL-2 melanoma; 40.9 µM in the assay with SF-295 CNS; 29.6 µM with OVCAR-3 ovarian. Besides, the TGI in the assay on SK-MEL-28 melanoma was 54.1 µM; with MOLT-4 leukemia, 22.3 µM; in the assay with 786-0 renal it was 37 µM; in the assay on SF-539 CNS, 48.4 µM.

With `Cc1cc2c(cc1-c1cc3c(cc1C)C(C(C)C)=C(O)C(=O)/C3=C\Nc1nc(-c3ccccc3)cs1)/C(=C/Nc1nc(-c3ccccc3)cs1)C(=O)C(O)=C2C(C)C`, the TGI in the assay with UACC-62 melanoma is 35.7 µM; with HL-60(TB) leukemia it was > 100 µM; with MCF7 breast, 41.1 µM; with SK-MEL-2 melanoma, 50.9 µM; in the assay with SF-295 CNS it was 40.9 µM; in the assay with OVCAR-3 ovarian, 36 µM. The TGI in the assay on SK-MEL-28 melanoma is 30.4 µM; in the assay on MOLT-4 leukemia it was > 100 µM; with 786-0 renal, > 100 µM; in the assay with SF-539 CNS, 43.9 µM.

Regarding `O=C1NN=C(c2ccc(Cl)cc2)CC1C1C(=O)N(c2ccccc2)N=C1c1ccccc1` (stereo not given), the TGI was 72.8 µM with UACC-62 melanoma; > 100 µM in the assay on HL-60(TB) leukemia; > 100 µM in the assay on MCF7 breast; 78.7 µM in the assay with SK-MEL-2 melanoma; > 100 µM in the assay on SF-295 CNS; 72.9 µM with OVCAR-3 ovarian. The TGI in the assay with SK-MEL-28 melanoma is > 100 µM; with MOLT-4 leukemia, > 100 µM; in the assay with 786-0 renal, 63.2 µM; in the assay with SF-539 CNS, 66.8 µM.

Take `O=c1c2ccccc2oc2c1ccc1ncccc12`: the TGI with UACC-62 melanoma was 73.6 µM; with HL-60(TB) leukemia it was > 100 µM; with MCF7 breast it was 27.8 µM; with SK-MEL-2 melanoma, > 100 µM; with SF-295 CNS, 45.9 µM; with OVCAR-3 ovarian, 89.6 µM. Moreover, the TGI was > 100 µM in the assay with SK-MEL-28 melanoma, > 100 µM in the assay with MOLT-4 leukemia, 48.9 µM with 786-0 renal and 53.3 µM with SF-539 CNS.

In the case of `COc1ccc(/C=N\N2CC(=O)N3C4C=CC(CC4)N3C2=O)cc1` (stereo not given), the TGI in the assay on UACC-62 melanoma, in the assay on HL-60(TB) leukemia, with MCF7 breast, with SK-MEL-2 melanoma, with SF-295 CNS and in the assay with OVCAR-3 ovarian was > 100 µM throughout. In addition, the TGI with SK-MEL-28 melanoma, in the assay with MOLT-4 leukemia, with 786-0 renal and with SF-539 CNS was > 100 µM each time.

For `O=C(CCc1cccc(O)c1)NCCc1cccc(O)c1`, the TGI with UACC-62 melanoma, with HL-60(TB) leukemia, with MCF7 breast, in the assay with SK-MEL-2 melanoma, with SF-295 CNS and in the assay on OVCAR-3 ovarian was > 100 µM in each case. In addition, the TGI in the assay on SK-MEL-28 melanoma, in the assay with MOLT-4 leukemia, with 786-0 renal and in the assay on SF-539 CNS was > 100 µM each time.

For `CCNC(=S)N/N=C/c1cc(OC)ccc1O`, the TGI in the assay with UACC-62 melanoma, with HL-60(TB) leukemia, with MCF7 breast, in the assay on SK-MEL-2 melanoma, in the assay with SF-295 CNS and in the assay with OVCAR-3 ovarian was > 100 µM throughout. Moreover, the TGI with SK-MEL-28 melanoma, in the assay on MOLT-4 leukemia, with 786-0 renal and in the assay with SF-539 CNS was > 100 µM in each case.

As to `COc1cc2c(cc1OCCCC(=O)Nc1cc(C(=O)Nc3cc(C(=O)Nc4cc(C(=O)NCCCN(C)C)n(C)c4)n(C)c3)n(C)c1)N=C[C@@H]1CCCN1C2=O`, the TGI in the assay with UACC-62 melanoma stood at 6.53 µM; in the assay with HL-60(TB) leukemia it was 3.42 µM; in the assay with MCF7 breast, 7.25 µM; with SK-MEL-2 melanoma it was 6.79 µM; with SF-295 CNS, 26.4 µM; with OVCAR-3 ovarian it was 3.62 µM. The TGI is 4.66 µM in the assay with SK-MEL-28 melanoma, > 100 µM with MOLT-4 leukemia, 2.37 µM in the assay on 786-0 renal and 8.72 µM with SF-539 CNS.

Take `Cc1cc(NS(=O)(=O)c2ccc(NC(=O)c3ccc4nc5ccccc5c(Nc5ccc(S(=O)(=O)N=C(N)N)cc5)c4c3)cc2)no1`: the TGI was 46.5 µM in the assay on UACC-62 melanoma; 46.2 µM in the assay with HL-60(TB) leukemia; 36.4 µM with MCF7 breast; 33.4 µM in the assay on SK-MEL-2 melanoma; 38 µM with SF-295 CNS; 34.6 µM in the assay on OVCAR-3 ovarian. Besides, the TGI was 35 µM in the assay on SK-MEL-28 melanoma, 40.8 µM in the assay with MOLT-4 leukemia, 30.6 µM with 786-0 renal and 44.9 µM in the assay with SF-539 CNS.

Take `NNC(=O)CC(=O)Nc1ccc(Cl)cc1`: the TGI with UACC-62 melanoma, with HL-60(TB) leukemia, in the assay with MCF7 breast, in the assay with SK-MEL-2 melanoma, with SF-295 CNS and in the assay on OVCAR-3 ovarian was > 100 µM in each case. The TGI in the assay with SK-MEL-28 melanoma, in the assay with MOLT-4 leukemia, in the assay with 786-0 renal and in the assay with SF-539 CNS was > 100 µM each time.
